# According to PMC11012124, “Synthesis of Novel Triazine-Based Chalcones and 8,9-dihydro-7H-pyrimido[4,5-b][1,4]diazepines as Potential Leads in the Search of Anticancer, Antibacterial and Antifungal Agents” (International Journal of Molecular Sciences, 2024):
# Read-outs that look alike come from different tables or passages of the source.
# Legend:
# 60 cancer cell lines = test: NCI-60 one-dose screen (10 μM); type: cell-based; conditions: Homo sapiens; one dose of 10 μM, mean over 60 cancer cell lines; read-out: Mean Growth Percent (MGP)
# From the text: Additionally, the mean of the growth percentages (MGP) of each compound against all the 60 cancer cell lines is also reported, which is used as one of the selection criteria to continue with tests at five concentration doses.
# [1] = system: M. tuberculosis ATCC 27294; test: Antitubercular broth microdilution MIC; type: cell-based; conditions: Mycobacterium tuberculosis; M. tuberculosis ATCC 27294 (H37Rv); read-out: Minimum inhibitory concentration (MIC)
# MOLT-4 = test: cells; conditions: Homo sapiens, MOLT-4, 48 h; for CC50: read-out: LC50
# RPMI-8226 = test: cells; conditions: Homo sapiens, RPMI-8226, 48 h; for CC50: read-out: LC50
# A549/ATCC = test: cells; conditions: Homo sapiens, A549, 48 h; for CC50: read-out: LC50
# HOP-92 = test: cells; conditions: Homo sapiens, HOP-92, 48 h; for CC50: read-out: LC50
# NCI-H226 = test: cells; conditions: Homo sapiens, NCI-H226, 48 h; for CC50: read-out: LC50
# NCI-H23 = test: cells; conditions: Homo sapiens, NCI-H23, 48 h; for CC50: read-out: LC50
# NCI-H522 = test: cells; conditions: Homo sapiens, NCI-H522, 48 h; for CC50: read-out: LC50
# HCT-116 = test: cells; conditions: Homo sapiens, HCT-116, 48 h; for CC50: read-out: LC50
# SW-620 = test: cells; conditions: Homo sapiens, SW-620, 48 h; for CC50: read-out: LC50
# SNB-19 = test: cells; conditions: Homo sapiens, SNB-19, 48 h; for CC50: read-out: LC50
# U251 = test: cells; conditions: Homo sapiens, U-251, 48 h; for GI50: U251, 48 h; for CC50: read-out: LC50
# LOX IMVI = test: cells; conditions: Homo sapiens, 48 h; for CC50: read-out: LC50, LOX IMVI, 48 h
# MDA-MB-435 = test: cells; conditions: Homo sapiens, MDA-MB-435, 48 h; for CC50: read-out: LC50
# SK-MEL-2 = test: cells; conditions: Homo sapiens, SK-MEL-2, 48 h; for CC50: read-out: LC50
# IGROV1 = test: cells; conditions: Homo sapiens, IGROV-1, 48 h; for CC50: read-out: LC50
# NCI/ADR-RES = test: cells; conditions: Homo sapiens, 48 h; for CC50: read-out: LC50
# ACHN = test: cells; conditions: Homo sapiens, 48 h; for CC50: read-out: LC50
# PC-3 = test: cells; conditions: Homo sapiens, PC-3, 48 h; for CC50: read-out: LC50
# DU-145 = test: cells; conditions: Homo sapiens, DU-145, 48 h; for CC50: read-out: LC50
# MDA-MB-231/ATCC = test: cells; conditions: Homo sapiens, MDA-MB-231, 48 h; for CC50: read-out: LC50
# BT-549 = test: cells; conditions: Homo sapiens, BT-549, 48 h; for CC50: read-out: LC50
# T-47D = test: cells; conditions: Homo sapiens, T47D, 48 h; for CC50: read-out: LC50
# SR = test: cells; conditions: Homo sapiens, 48 h
# [2] = system: N. gonorrhoeae ATCC 49226; test: MIC on GC agar plates; type: cell-based, Neisseria gonorrhoeae
# Method in brief: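 N. gonorrhoeae (1 × 10^4 CFU) was spotted onto IsoVitaleX-supplemented (1%) GC agar containing graded compound levels. The lowest inhibitory concentration was recorded as the MIC, with oxidase testing used to verify growth, and each assay was done in duplicate on at least two separate occasions.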
smiles,measurement,setting,value
CN(C)c1nc(NCCNS(=O)(=O)c2ccc(C(=O)/C=C/c3ccc(F)cc3)cc2)nc(Nc2ccc(F)cc2)n1 [24f],activity at 10 µM,60 cancer cell lines,-70.5%
same,MIC,[1],25 µg/mL
same,GI50,MOLT-4,2.5 µM
same,CC50,MOLT-4,6.49 µM
same,GI50,RPMI-8226,2.42 µM
same,CC50,RPMI-8226,6.92 µM
same,GI50,A549/ATCC,3.41 µM
same,CC50,A549/ATCC,14.2 µM
same,GI50,HOP-92,2.49 µM
same,CC50,HOP-92,6.51 µM
same,GI50,NCI-H226,3.41 µM
same,CC50,NCI-H226,16.4 µM
same,GI50,NCI-H23,4.17 µM
same,CC50,NCI-H23,15.6 µM
same,GI50,NCI-H522,2.81 µM
same,CC50,NCI-H522,8.9 µM
same,GI50,HCT-116,1.6 µM
same,CC50,HCT-116,3.01 µM
same,GI50,SW-620,1.9 µM
same,CC50,SW-620,4.02 µM
same,GI50,SNB-19,4.58 µM
same,CC50,SNB-19,16.8 µM
same,GI50,U251,1.99 µM
same,CC50,U251,4.41 µM
same,GI50,LOX IMVI,1.66 µM
same,CC50,LOX IMVI,3.07 µM
same,GI50,MDA-MB-435,2.32 µM
same,CC50,MDA-MB-435,5.69 µM
same,GI50,SK-MEL-2,2.77 µM
same,CC50,SK-MEL-2,8.31 µM
same,GI50,IGROV1,4.27 µM
same,CC50,IGROV1,15 µM
same,GI50,NCI/ADR-RES,3.25 µM
same,CC50,NCI/ADR-RES,11.6 µM
same,GI50,ACHN,3.13 µM
same,CC50,ACHN,10.9 µM
same,GI50,PC-3,2.76 µM
same,CC50,PC-3,10.6 µM
same,GI50,DU-145,3.94 µM
same,CC50,DU-145,14 µM
same,GI50,MDA-MB-231/ATCC,2.64 µM
same,CC50,MDA-MB-231/ATCC,8.39 µM
same,GI50,BT-549,4.87 µM
same,CC50,BT-549,17.1 µM
same,GI50,T-47D,3.02 µM
same,CC50,T-47D,11.7 µM
Cc1ccc(/C=C/C(=O)c2ccc(S(=O)(=O)NCCNc3nc(Nc4ccc(F)cc4)nc(N(C)C)n3)cc2)cc1 [24b],activity at 10 µM,60 cancer cell lines,16.5%
same,MIC,[1],25 µg/mL
same,GI50,MOLT-4,3.86 µM
same,CC50,MOLT-4,> 100 µM
same,GI50,RPMI-8226,2.73 µM
same,CC50,RPMI-8226,> 100 µM
same,GI50,SR,2.76 µM
same,CC50,SR; read-out: LC50,> 100 µM
same,GI50,A549/ATCC,10.5 µM
same,CC50,A549/ATCC,77.7 µM
same,GI50,HOP-92,7.63 µM
same,CC50,HOP-92,54 µM
same,GI50,NCI-H226,10.4 µM
same,CC50,NCI-H226,63.9 µM
same,GI50,NCI-H23,11.3 µM
same,CC50,NCI-H23,50 µM
same,GI50,NCI-H522,5.24 µM
same,CC50,NCI-H522,45.3 µM
same,GI50,HCT-116,1.75 µM
same,CC50,HCT-116,6.17 µM
same,GI50,SW-620,7.53 µM
same,CC50,SW-620,49.4 µM
same,GI50,SNB-19,11 µM
same,CC50,SNB-19,50.2 µM
same,GI50,U251,11.6 µM
same,CC50,U251,58.7 µM
same,GI50,LOX IMVI,4.12 µM
same,CC50,LOX IMVI,39.3 µM
same,GI50,MDA-MB-435,6.03 µM
same,CC50,MDA-MB-435,61.7 µM
same,GI50,SK-MEL-2,11.2 µM
same,CC50,SK-MEL-2,52.3 µM
same,GI50,IGROV1,15.1 µM
same,CC50,IGROV1,63.6 µM
same,GI50,NCI/ADR-RES,8.4 µM
same,CC50,NCI/ADR-RES,47.1 µM
same,GI50,ACHN,6.31 µM
same,CC50,ACHN,44.1 µM
same,GI50,PC-3,3.54 µM
same,CC50,PC-3,89.5 µM
same,GI50,DU-145,14 µM
same,CC50,DU-145,74.8 µM
same,GI50,MDA-MB-231/ATCC,6.56 µM
same,CC50,MDA-MB-231/ATCC,48 µM
same,GI50,BT-549,15.7 µM
same,CC50,BT-549,57.8 µM
same,GI50,T-47D,3.86 µM
same,CC50,T-47D,52.7 µM
CN(C)c1nc(NCCNS(=O)(=O)c2ccc(C3=Nc4c(N)nc(N)nc4NC(c4ccc(F)cc4)C3)cc2)nc(Nc2ccc(F)cc2)n1 (centres unmarked) [31f],activity at 10 µM,60 cancer cell lines,37.1%
same,MIC,[2],0.25 µg/mL
same,MIC,"[2]; Neisseria gonorrhoeae, ATCC49226, read-out: MIC",0.25 µg/mL
same,MIC,[1],1.2 µg/mL
same,GI50,MOLT-4,2.45 µM
same,GI50,RPMI-8226,5.25 µM
same,CC50,RPMI-8226,> 100 µM
same,GI50,A549/ATCC,> 100 µM
same,CC50,A549/ATCC,> 100 µM
same,GI50,HOP-92,3.09 µM
same,CC50,HOP-92,23.3 µM
same,GI50,NCI-H226,> 100 µM
same,CC50,NCI-H226,> 100 µM
same,GI50,NCI-H23,54.1 µM
same,CC50,NCI-H23,> 100 µM
same,GI50,NCI-H522,34.8 µM
same,CC50,NCI-H522,> 100 µM
same,GI50,HCT-116,4.54 µM
same,CC50,HCT-116,> 100 µM
same,GI50,SW-620,8.27 µM
same,CC50,SW-620,> 100 µM
same,GI50,U251,6.35 µM
same,CC50,U251,> 100 µM
same,GI50,LOX IMVI,2.62 µM
same,CC50,LOX IMVI,9.13 µM
same,GI50,MDA-MB-435,5.93 µM
same,CC50,MDA-MB-435,> 100 µM
same,GI50,SK-MEL-2,8.17 µM
same,CC50,SK-MEL-2,29 µM
same,GI50,IGROV1,5.01 µM
same,CC50,IGROV1,> 100 µM
same,GI50,NCI/ADR-RES,> 100 µM
same,CC50,NCI/ADR-RES,> 100 µM
same,GI50,ACHN,> 100 µM
same,CC50,ACHN,> 100 µM
same,GI50,PC-3,5.04 µM
same,CC50,PC-3,> 100 µM
same,GI50,DU-145,52 µM
same,CC50,DU-145,> 100 µM
same,GI50,BT-549,3.26 µM
same,CC50,BT-549,18.2 µM
same,GI50,T-47D,4.86 µM
same,CC50,T-47D,> 100 µM
